#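 Exposure lasted 48 hours, with cells grown in 96-well plates and compounds tested at five concentrations. GI50 = concentration required for 50% inhibition of growth. TGI: total growth inhibition.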
# How the values were obtained:
# Experiment in all cases: DTP human tumour cell line panel, 48 h
# EKVX NSCLC = test system: EKVX NSCLC
# HS 578T breast = test system: HS 578T breast
# MOLT-4 leukemia = test system: MOLT-4 leukemia
# NCI-H460 lung = test system: NCI-H460 lung
# OVCAR-5 ovarian = test system: OVCAR-5 ovarian
# PC-3 prostate = test system: PC-3 prostate
# SK-MEL-28 melanoma = test system: SK-MEL-28 melanoma
# UACC-62 melanoma = test system: UACC-62 melanoma
# UO-31 renal = test system: UO-31 renal
# MCF7 breast = test system: MCF7 breast
SMILES,GI50 (EKVX NSCLC) [µM],TGI (EKVX NSCLC) [µM],GI50 (HS 578T breast) [µM],TGI (HS 578T breast) [µM],GI50 (MOLT-4 leukemia) [µM],TGI (MOLT-4 leukemia) [µM],GI50 (NCI-H460 lung) [µM],TGI (NCI-H460 lung) [µM],GI50 (OVCAR-5 ovarian) [µM],TGI (OVCAR-5 ovarian) [µM],GI50 (PC-3 prostate) [µM],TGI (PC-3 prostate) [µM],GI50 (SK-MEL-28 melanoma) [µM],TGI (SK-MEL-28 melanoma) [µM],GI50 (UACC-62 melanoma) [µM],TGI (UACC-62 melanoma) [µM],GI50 (UO-31 renal) [µM],TGI (UO-31 renal) [µM],GI50 (MCF7 breast) [µM],TGI (MCF7 breast) [µM]
CCN=C1C=CC(=C(c2ccc(N)cc2)c2ccc(N(CC)CC)c(C)c2)C=C1,0.266,11.1,0.278,5.1,0.394,5.12,0.287,1.18,0.317,2.07,0.205,4.33,0.394,1.96,0.248,0.866,2.03,10.3,–,–
C/C(=N\Nc1ccc2ccccc2n1)c1ccccn1,–,–,1.94,30.5,< 0.0394,0.404,< 0.0507,3.71,0.0832,14.5,–,7.23,0.345,16.2,0.104,0.652,< 0.0395,0.676,0.102,5.21
CC(C)CC(CC1=CCC2CC1C2(C)C)C1=C(O)C(C)(C)C(=O)C(C)(C)C1=O (stereo unspecified),0.33,> 100,0.366,3.81,0.343,1.6,–,–,0.386,> 100,0.318,> 100,–,–,0.266,1.17,0.272,2.4,0.303,> 100
CCCCNCC(=O)O[C@]1(CC)C(=O)OCc2c1cc1n(c2=O)Cc2cc3ccccc3nc2-1,–,> 100,–,> 100,–,0.232,–,1.68,–,5.95,–,> 100,–,> 93.8,–,0.925,–,1.71,–,–
CCCCCCCCCCCCCCCCCC(=O)OCC(COC1OC(COP(=O)(O)O)C(O)C(O)C1O)OC(=O)CCCCCCCCCCCCCCCCC (stereo unspecified),–,16.4,–,17.4,–,17.3,–,23.4,–,11.4,–,14.3,–,18,–,16.3,–,–,–,17.1
Cn1c2c(cc(S(=O)(=O)c3ccccc3)c1=O)CCc1c-2cnn1-c1ccc(Cl)cc1,3.62,31,2.72,7.61,> 100,> 100,–,–,3.37,> 100,–,–,3.24,13.4,2.35,5.07,1.87,6.09,4.59,> 100
O=c1[nH]c2ccccc2nc1-c1c[nH]c2ccccc12,18.8,> 100,6.83,> 100,> 100,> 100,> 100,> 100,> 100,> 100,> 100,> 100,> 100,> 100,–,–,0.725,> 100,93.4,> 100
COc1cccc(NC(=O)c2sc3nc4c(cc3c2N)CN(Cc2ccccc2)CC4)c1,–,–,2.14,23,21.9,> 100,4.18,30.9,36.9,> 100,11.6,91.1,2.8,29.7,1.92,29.8,3.27,32.3,0.62,> 100
N/C(=N\N=C\c1ccc(-c2ccccc2)cc1)N[N+](=O)[O-],–,–,1.43,> 61.3,5.76,> 100,2.98,> 100,> 100,> 100,3.81,> 100,25.3,> 100,0.771,> 100,6.22,> 100,1.47,> 100
O=[N+]([O-])c1cccc(-c2nc3sccn3c2-c2ccnc(NCCCNS(=O)(=O)c3cccc(F)c3)n2)c1,2.77,52.7,4.73,47.3,–,–,3.34,> 100,7.83,> 100,1.37,6.62,2.63,7.76,1.16,4.26,1.25,9.04,2.16,8.48
CC(CN1CCN(CCOCCO)CC1)CN1c2ccccc2Sc2ccc(Cl)cc21 (stereo unspecified),–,–,3.44,20.1,2.49,6.54,2.36,5.35,2.6,7.27,2.6,10.6,1.75,3.22,1.75,3.44,3.3,16.4,2.64,6.61
O=C1c2ccccc2-c2c1c1ccc([N+](=O)[O-])cc1c(=O)n2CCCBr,> 100,> 100,–,–,–,–,–,–,> 100,> 100,> 100,> 100,> 100,> 100,> 100,> 100,> 100,> 100,0.153,> 100
COc1ccc(C2=C(Cl)c3cc(OC)c(OC)cc3C2Cl)cc1OC (stereo unspecified),–,50.5,–,–,–,15.4,–,34.8,–,30.2,–,–,–,34.5,–,31,–,31.3,–,–
COc1ccc(NC(=O)C/C(C)=N\N=C(N)N)c([N+](=O)[O-])c1,–,> 100,–,–,–,> 100,–,> 100,–,> 100,–,–,–,> 100,–,> 100,–,> 100,–,–
Cc1cc2c(C)n(Cc3ccc(Cl)cc3Cl)nc2c(C#N)c1C,–,> 100,–,–,–,> 100,–,> 100,–,> 56.2,–,–,–,> 100,–,> 100,–,> 95.3,–,–
C=C1COC(/C=C(\C)CC/C=C(\C)CCl)C1 (stereo unspecified),–,> 100,–,–,–,> 100,–,> 100,–,> 100,–,–,–,> 100,–,> 100,–,> 100,–,–
Cc1ccc(-c2cc(-c3ccc(C)cc3)nc(NCCNc3ccnc4cc(Cl)ccc34)n2)cc1,1.69,3.52,–,–,–,–,1.91,3.7,1.65,3.07,–,–,1.76,3.38,1.77,3.38,1.37,2.85,1.75,3.64

# Reference: PubChem BioAssay (NCI)
